Laboratory results from EP4678644A1, “SUBSTITUTED DIHYDROTHIENOPYRIMIDINE COMPOUND, PREPARATION METHOD THEREFOR, AND USE THEREOF” (Shanghai Yidi Biotechnology Co., Ltd., priority 2023, dated 2024).

Legend:
PDE4D2 = PDE4D2 (Homo sapiens, UniProt Q08499); experiment: PDE4D2 enzyme experiment (AMP-glo, cAMP substrate); format: biochemical; settings: read-out: PDE4D2 IC50 Binding
Source text: Inhibition rate % ^= (1 - (RLUpositive control - RLUcompound)/(RLUpositive control - RLUnegative control)) * 100.

PDE4B2 [1] = biological target: T1, PDE4B2 (Homo sapiens, UniProt Q07343); experiment: PDE4B2 enzyme experiment (AMP-glo, cAMP substrate); format: biochemical; settings: for inhibition at 0.01 µM: read-out: PDE4B2 Enzyme Inhibition% @10 nM; for inhibition at 0.1 µM: read-out: PDE4B2 Enzyme Inhibition% @100 nM
T1 construct: expressed in transfected cells; host or cells: Flp-In-293 (Flpin-293-PDE4B2 [sic])

PDE4B2 [2] = biological target: T1, PDE4B2; experiment: PDE4B2 cell experiment (cAMP, Eu-cAMP tracer / Ulight-anti-cAMP); format: cell-based; settings: Flpin-293-PDE4B2 cells; for IC50: Foskolin; for Cell Inhibition% @10 nM / inhibition at 0.01 µM: 10 nM; for Cell Inhibition% @100 nM / inhibition at 0.1 µM: 100 nM

Sequence of PDE4D2 (Q08499 303-809 limits assumed): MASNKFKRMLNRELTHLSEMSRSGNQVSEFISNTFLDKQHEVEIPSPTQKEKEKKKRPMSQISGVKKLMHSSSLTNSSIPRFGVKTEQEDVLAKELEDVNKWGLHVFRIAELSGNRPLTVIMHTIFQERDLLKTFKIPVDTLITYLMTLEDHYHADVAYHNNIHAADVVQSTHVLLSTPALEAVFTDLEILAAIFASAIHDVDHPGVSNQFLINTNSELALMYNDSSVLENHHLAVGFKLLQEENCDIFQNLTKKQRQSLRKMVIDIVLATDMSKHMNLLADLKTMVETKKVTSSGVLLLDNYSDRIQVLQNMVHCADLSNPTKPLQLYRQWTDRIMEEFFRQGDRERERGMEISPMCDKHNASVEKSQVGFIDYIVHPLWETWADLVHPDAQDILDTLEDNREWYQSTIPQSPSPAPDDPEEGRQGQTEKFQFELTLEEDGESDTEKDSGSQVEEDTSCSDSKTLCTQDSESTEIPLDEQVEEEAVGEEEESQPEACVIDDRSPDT
T1 sequence (Q07343 1-564 isoform Q07343-2): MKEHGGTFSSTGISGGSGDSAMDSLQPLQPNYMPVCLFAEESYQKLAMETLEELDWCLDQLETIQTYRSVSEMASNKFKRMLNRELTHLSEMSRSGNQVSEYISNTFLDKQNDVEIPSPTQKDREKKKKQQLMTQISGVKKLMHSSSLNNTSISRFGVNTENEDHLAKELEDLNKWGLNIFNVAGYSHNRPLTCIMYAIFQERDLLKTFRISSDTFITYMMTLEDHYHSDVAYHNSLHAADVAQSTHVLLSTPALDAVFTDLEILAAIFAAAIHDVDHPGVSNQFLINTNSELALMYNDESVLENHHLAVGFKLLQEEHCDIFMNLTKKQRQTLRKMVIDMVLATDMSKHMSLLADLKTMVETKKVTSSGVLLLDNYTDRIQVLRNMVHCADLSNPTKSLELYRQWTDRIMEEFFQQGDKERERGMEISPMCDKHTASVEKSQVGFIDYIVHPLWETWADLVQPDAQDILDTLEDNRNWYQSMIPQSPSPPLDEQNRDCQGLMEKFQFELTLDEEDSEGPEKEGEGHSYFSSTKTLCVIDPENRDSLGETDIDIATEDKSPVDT

Structure (SMILES) | IC50 (PDE4D2) [nM] | IC50 (PDE4B2 [1]) [nM] | Cell Inhibition% @10 nM (PDE4B2 [2]) [%] | Cell Inhibition% @100 nM (PDE4B2 [2]) [%] | also measured
CNc1nc2cc(Cl)ccc2c2c1CN(c1nc3c(c(NC4(CO)CCC4)n1)[S@+]([O-])CC3)CC2 [Compound 74, (R)-2-(8-chloro-5-(methylamino)-1,4-dihydrobenzo[c][2,7]naphthyridin-3(2H)-yl)-4-((1-(hydroxymethyl)cyclobutyl)amino)-6,7-dihydrothieno[3,2-d]pyrimidine 5-oxide] | 1.09 |  |  |  | 
[O-][S@+]1CCc2nc(N3CCc4c(cnc5cc(Cl)ccc45)C3)nc(NC3(CO)CCC3)c21 [Compound 72, (R)-2-(8-chloro-1,4-dihydrobenzo[c][2,7]naphthyridin-3(2H)-yl)-4-((1-(hydroxymethyl)cyclobutyl)amino)-6,7-dihydrothieno[3,2-d]pyrimidine 5-oxide] | 0.587 |  |  |  | 
Cn1ncc2c3c(cnc21)CN(c1nc2c(c(NC4(CO)CCC4)n1)[S@+]([O-])CC2)CC3 [Compound 104, (R)-4-((1-(hydroxymethyl)cyclobutyl)amino)-2-(3-methyl-3,6,8,9-tetrahydro-7H-pyrazolo[3,4-c][2,7]naphthyridin-7-yl)-6,7-dihydrothieno[3,2-d]pyrimidine 5-oxide] | 2.94 |  |  |  | 
[O-][S@+]1CCc2nc(N3CCc4c(c(Cl)nc5cc(Cl)ccc45)C3)nc(NC3(CO)CCC3)c21 [Compound 73, (R)-2-(5,8-dichloro-1,4-dihydrobenzo[c][2,7]naphthyridin-3(2H)-yl)-4-((1-(hydroxymethyl)cyclobutyl)amino)-6,7-dihydrothieno[3,2-d]pyrimidine 5-oxide] | 0.958 |  |  |  | 
[O-][S+]1CCc2nc(N3CCc4c(nn5cccc(Cl)c45)C3)nc(NC3(CO)CCC3)c21 (stereo not shown) [Compound 10] |  | 2.31 |  |  | IC50 (PDE4B2 [2]): 73.8 nM
COc1cc2c(cc1[N+](=O)[O-])CCN(c1nc3c(c(NC4(CO)CCC4)n1)[S@+]([O-])CC3)C2 [Compound 50, (R)-4-((1-(hydroxymethyl)cyclobutyl)amino)-2-(7-methoxy-6-nitro-3,4-dihydroisoquinolin-2(1H)-yl)-6,7-dihydrothieno[3,2-d]pyrimidine 5-oxide] | 0.695 |  |  |  | 
[O-][S@+]1CCc2nc(N3CCc4c(nn5cc(Cl)cnc45)C3)nc(NC3(CO)CCC3)c21 [Compound 1, (R)-2-(3-chloro-9,10-dihydropyrido[3',4':3,4]pyrazolo[1,5-a]pyrimidin-8(7H)-yl)-4-((1-(hydroxymethyl)cyclobutyl)amino)-6,7-dihydrothieno[3,2-d]pyrimidine 5-oxide] | 7.72 |  |  |  | 
[O-][S@+]1CCc2nc(N3CCc4cc(C5CC5)ccc4C3)nc(NC3(CO)CCC3)c21 [Compound 66, (R)-2-(6-cyclopropyl-3,4-dihydroisoquinolin-2(1H)-yl)-4-((1-(hydroxymethyl)cyclobutyl)amino)-6,7-dihydrothieno[3,2-d]pyrimidine 5-oxide] | 1.13 |  |  |  | 
O=C1OCCN1c1ccc2c(c1)CCN(c1nc3c(c(NC4(CO)CCC4)n1)[S@+]([O-])CC3)C2 [Compound 80, (R)-3-(2-(4-((1-(hydroxymethyl)cyclobutyl)amino)-5-oxido-6,7-dihydrothieno[3,2-d]pyrimidin-2-yl)-1,2,3,4-tetrahydroisoquinolin-6-yl)oxazolidin-2-one] | 0.56 |  |  |  | 
CN1CC=C(c2ccc3c(c2)CCN(c2nc4c(c(NC5(CO)CCC5)n2)[S@+]([O-])CC4)C3)C1 [Compound 169, (R)-4-((1-(hydroxymethyl)cyclobutyl)amino)-2-(6-(1-methyl-2,5-dihydro-1H-pyrrol-3-yl)-3,4-dihydroisoquinolin-2(1H)-yl)-6,7-dihydrothieno[3,2-d]pyrimidine 5-oxide] |  |  |  |  | inhibition at 0.01 µM (PDE4B2 [1]): 20.4%; inhibition at 0.1 µM (PDE4B2 [1]): 78.8%; inhibition at 0.001 µM (PDE4B2 [2]; 1 nM): 4.67%; inhibition at 0.01 µM (PDE4B2 [2]): 48.6%; inhibition at 0.1 µM (PDE4B2 [2]): 96.7%
[O-][S@+]1CCc2nc(N3CCc4cc5ncoc5cc4C3)nc(NC3(CO)CCC3)c21 [Compound 49, (R)-2-(7,8-dihydrooxazolo[4,5-g]isoquinolin-6(5H)-yl)-4-((1-(hydroxymethyl)cyclobutyl)amino)-6,7-dihydrothieno[3,2-d]pyrimidine 5-oxide] | 4.81 |  |  |  | 
[O-][S@+]1CCc2nc(N3CC[C@@H]4c5ccc(Cl)cc5CC[C@@H]4C3)nc(NC3(CO)CCC3)c21 [Compound 12, (R)-2-((4aS,10bS)-8-chloro-1,4,4a,5,6,10-hexahydrobenzo[f]isoquinolin-3(2H)-yl)-4-((1-(hydroxymethyl)cyclobutyl)amino)-6,7-dihydrothieno[3,2-d]pyrimidine 5-oxide] |  | 15.4 |  |  | inhibition at 0.01 µM (PDE4B2 [2]): 16%; inhibition at 0.1 µM (PDE4B2 [2]): 7.46%
[O-][S@+]1CCc2nc(N3CCc4scc(Br)c4C3)nc(NC3(CO)CCC3)c21 [Compound 57, (R)-2-(3-bromo-6,7-dihydrothieno[3,2-c]pyridin-5(4H)-yl)-4-((1-(hydroxymethyl)cyclobutyl)amino)-6,7-dihydrothieno[2,2-d]pyrimidine 5-oxide] |  |  |  |  | inhibition at 0.001 µM (PDE4B2 [1]; read-out: PDE4B2 Enzyme Inhibition% @1 nM): 38.9%; inhibition at 0.01 µM (PDE4B2 [1]): 90.5%; inhibition at 0.1 µM (PDE4B2 [1]): 100%; inhibition at 0.001 µM (PDE4B2 [2]; 1 nM): 11.8%; inhibition at 0.01 µM (PDE4B2 [2]): 14.9%; inhibition at 0.1 µM (PDE4B2 [2]): 71.6%
Cn1cnc2c1CN(c1nc3c(c(NC4(CO)CCC4)n1)[S@+]([O-])CC3)CC2 [Compound 38, (R)-4-((1-(hydroxymethyl)cyclobutyl)amino)-2-(3-methyl-3,4,6,7-tetrahydro-5H-imidazo[4,5-c]pyridin-5-yl)-6,7-dihydrothieno[3,2-d]pyrimidine-5-oxide] |  |  |  |  | inhibition at 0.01 µM (PDE4B2 [1]): 35.4%; inhibition at 0.1 µM (PDE4B2 [1]): 84.7%; inhibition at 0.01 µM (PDE4B2 [2]): 20.3%; inhibition at 0.1 µM (PDE4B2 [2]): 38.2%
[O-][S+]1CCc2nc(N3CCc4nc(Br)sc4C3)nc(NC3(CO)CCC3)c21 (stereo not shown) [Compound 63] |  | 4.21 | 31.1 | 76.6 | 
Cn1nccc1-c1ccc2c(c1)CCN(c1nc3c(c(NC4(CO)CCC4)n1)[S@+]([O-])CC3)C2 [Compound 76, (R)-4-((1-(hydroxymethyl)cyclobutyl)amino)-2-(6-(1-methyl-1H-pyrazol-5-yl)-3,4-dihydroisoquinolin-2(1H)-yl)-6,7-dihydrothieno[3,2-d]pyrimidine 5-oxide] | 0.089 |  |  |  | 
[O-][S+]1CCc2nc(N3CCc4ccc(Cl)cc4CC3)nc(NC3(CO)CCC3)c21 (stereo not shown) [Compound 34] |  | 1.96 | 14 | 62 | 
N#Cc1ccc2c(c1)CN(c1nc3c(c(NC4(CO)CCC4)n1)[S@+]([O-])CC3)C2 [Compound 60, (R)-2-(4-((1-(hydroxymethyl)cyclobutyl)amino)-5-oxido-6,7-dihydrothieno[3,2-d]pyrimidin-2-yl)isoindoline-5-carbonitrile] |  |  |  |  | inhibition at 0.01 µM (PDE4B2 [1]): 65.8%; inhibition at 0.1 µM (PDE4B2 [1]): 99.3%; inhibition at 0.01 µM (PDE4B2 [2]): 21.2%; inhibition at 0.1 µM (PDE4B2 [2]): 65.9%
[O-][S+]1CCc2nc(N3Cc4ccc(Cl)cc4C3)nc(NC3(CO)CCC3)c21 (stereo not shown) [Compound 33] |  |  | 9 | 33.2 | PDE4B2 Enzyme Inhibition% @10 nM (PDE4B2 [1]): 72.33%; PDE4B2 Enzyme Inhibition% @100 nM (PDE4B2 [1]): 98.64%
Cn1nc2c(c1Cl)CN(c1nc3c(c(NC4(CO)CCC4)n1)[S+]([O-])CC3)CC2 (stereo not shown) [Compound 58] |  |  | 15.88 | 57.11 | PDE4B2 Enzyme Inhibition% @10 nM (PDE4B2 [1]): 68.74%; PDE4B2 Enzyme Inhibition% @100 nM (PDE4B2 [1]): 97.48%
NC(=O)c1ccc2c(c1)CCN(c1nc3c(c(NC4(CO)CCC4)n1)[S+]([O-])CC3)C2 (stereo not shown) [Compound 75] |  | 0.81 | 24.88 | 51.36 | Cell Inhibition% @1 nM (PDE4B2 [2]; 1 nM): 4.93%

More lines, main results first:

IC50 (PDE4D2) [nM] | IC50 (PDE4B2 [1]) [nM] | Cell Inhibition% @10 nM (PDE4B2 [2]) [%] | Cell Inhibition% @100 nM (PDE4B2 [2]) [%] | Structure (SMILES) | also measured
0.0931 |  |  |  | [O-][S@+]1CCc2nc(N3CCc4cc(-c5nccs5)ccc4C3)nc(NC3(CO)CCC3)c21 [Compound 65, (R)-4-((1-(hydroxymethyl)cyclobutyl)amino)-2-(6-(thiazol-2-yl)-3,4-dihydroisoquinolin-2(1H)-yl)-6,7-dihydrothieno[3,2-d]pyrimidine 5-oxide] | 
 | 1.85 | 14.18 | 69.92 | [O-][S+]1CCc2nc(N3CCc4ccc(Cl)cc4C3)nc(NC3(CO)CCC3)c21 (stereo not shown) [Compound 20] | 
 | 7.17 |  |  | [O-][S+]1CCc2nc(N3CCc4c(Cl)cccc4C3)nc(NC3(CO)CCC3)c21 (stereo not shown) [Compound 19] | IC50 (PDE4B2 [2]): 205 nM
 |  | 18.10 | 66.60 | [O-][S+]1CCc2nc(N3CCc4ccsc4C3)nc(NC3(CO)CCC3)c21 (stereo not shown) [Compound 36] | PDE4B2 Enzyme Inhibition% @10 nM (PDE4B2 [1]): 74.54%; PDE4B2 Enzyme Inhibition% @100 nM (PDE4B2 [1]): 99.04%
 | 2.11 | 18.76 | 79.24 | [O-][S+]1CCc2nc(N3CCc4cccc(Cl)c4C3)nc(NC3(CO)CCC3)c21 (stereo not shown) [Compound 21] | 
 | 2.84 |  |  | [O-][S+]1CCc2nc(N3CCc4cc(F)ccc4C3)nc(NC3(CO)CCC3)c21 (stereo not shown) [Compound 23] | IC50 (PDE4B2 [2]): 29.1 nM
 |  | 52.78 | 93.43 | [O-][S+]1CCc2nc(N3CCc4sc(Br)cc4C3)nc(NC3(CO)CCC3)c21 (stereo not shown) [Compound 55] | PDE4B2 Enzyme Inhibition% @10 nM (PDE4B2 [1]): 93.26%; PDE4B2 Enzyme Inhibition% @100 nM (PDE4B2 [1]): 99.90%
3.21 |  |  |  | [O-][S@+]1CCc2nc(N3CCc4cc(Cl)ccc4C3)nc(NC3(CO)CCC3)c21 [Compound 18, (R)-2-(6-chloro-3,4-dihydroisoquinolin-2(1H)-yl)-4-((1-(hydroxymethyl)cyclobutyl)amino)-6,7-dihydrothieno[3,2-d]pyrimidine 5-oxide] | 
1.22 |  |  |  | [O-][S@+]1CCc2nc(N3CCc4cc(Br)sc4C3)nc(NC3(CO)CCC3)c21 [Compound 53, (R)-2-(2-bromo-4,7-dihydrothieno[2,3-c]pyridin-6(5H)-yl)-4-((1-(hydroxymethyl)cyclobutyl)amino)-6,7-dihydrothieno[3,2-d]pyrimidine 5-oxide] | 
